Experiment [1] can be described thus: Tasting in chocolate milk. The protocol:
Chocolate Milk with Different Fat Content […]
(§1) Samples were evaluated by expert tasters. Tasters were asked to describe the samples focusing on authentic taste, mouthfeel, fullness, salivation, sweetness, juiciness, richness, long lastingness and fattiness.

A short description of the next experiment: Tasting of baked pizza. Conditions: 0.5 PPM in the crust and 0.5 PPM in the tomato sauce, baked at 200 degrees Celsius. The method, then:
(§2) The following formulations were prepared and tasted by trained panelists.
Differentiator high temperature 100-250 degrees Celsius in hot air baking process
C18:2 gaba @ 0.5 PPM in the crust and @ 0.5 PPM in the tomato sauce
The pizza was topped off with cheese and baked in a hot air oven @ 200 degrees Celsius

A short description of experiment [2]: Test in peach flavoured drink. The conditions noted are these: 1 ppm; water, 8% sugar, 0.1% citric acid, peach flavour 0.05%. The method, then: (§3) Samples were prepared and evaluated by expert tasters. Tasters were asked to describe the samples focusing on authentic taste, mouthfeel, fullness, salty-ness, salivation, umami, sweetness, juiciness, richness, long lastingness and fattiness.
Test in Peach Flavoured Drink:
Base is water, 8% sugar, 0.1% citric acid, and proprietary peach flavour at 0.05%
(§4) Samples were evaluated by expert tasters. Tasters were asked to describe the samples focusing on authentic taste, mouthfeel, fullness, salty-ness, salivation, umami, sweetness, juiciness, richness, long lastingness and fattiness.
Comparison in a Peach Drink
Base is water, 8% sugar, 0.1% citric acid, proprietary peach flavour at 0.05%
Samples were evaluated by expert tasters. Tasters were asked to describe the samples focusing on authentic taste, mouthfeel, fullness, salivation, salty-ness, umami, sweetness, juiciness, richness, long lastingness and fattiness.

The nature of experiment [3]: Tasting in vanilla milk 0.15% fat. Conditions: 2 ppm, 4% sucrose, Vaniline 10 ppm + vanilla extract 0.03%. The gist of the method: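 Expert panel tasted samples in 0.15% fat milk sweetened with 4% sucrose and flavoured with vaniline at 10 ppm plus vanilla extract at 0.03%. Descriptors covered authentic taste, mouthfeel, fullness, saltiness, salivation, umami, sweetness, juiciness, richness, long-lastingness and fattiness.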

The nature of experiment [4]: Tasting in mango still beverage, 6% clear mango juice. The conditions noted are these: 1 ppm; 6% clear mango juice (full juice). The protocol: (§5) Mango Flavoured Still Beverage Containing Different Levels of Juice,
(§6) In a Mango flavoured still beverage, sweetened with 8% sucrose and containing 0.1% citric acid and 1%, 4% and 6% clear mango juice flavoured with a proprietary Mango flavour @ 0.05%, C18:2-gaba and C18:2-Pro were added, as such (separate) and in combination.
(§7) All samples were evaluated by expert tasters. Tasters were asked to describe the samples focusing on authentic taste, juicy mouthfeel, enhancement, richness, juiciness, long lastingness, salivation, sweetness.
In a Mango-flavoured still beverage, sweetened with 8% sucrose & containing 0.1% citric acid and 6% clear mango juice flavoured with Mango flavour@0.05%, C18:2-gaba and C18:2-Pro were added, as such (separate) and in combination.
Base is water, 8% sucrose, 0.1% citric acid, 6% clear mango juice (full juice), flavoured with Mango flavor, dosed at 0.05%.

Experiment [5] is described as follows: Tasting in strawberry flavoured sugar sweetened yoghurt. The conditions noted are these: 2 ppm, 1.5% fat yoghurt, 8% sucrose, strawberry flavour 0.015%.
Experiment [6] is described as follows: Tasting in mango juice drink, 1% clear mango juice. Conditions: 8% sucrose, 0.1% citric acid, mango flavour 0.05%. The gist of the method:
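Expert tasters described a still beverage of water, 8% sucrose, 0.1% citric acid, 1% clear mango juice and mango flavour at 0.05%. C18:2-gaba and C18:2-Pro were added separately and in combination. Attributes scored included authentic taste, mouthfeel, juiciness, salivation, sweetness, umami and long lastingness.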

Experiment [7] in a line: Tasting on fried potato snack product. Conditions: 35% fat, cheese seasoning. The protocol:
as §2
A snack product consisting of a fried potato base, containing 35% fat and flavored with cheese seasoning containing salt, MSG, dairy, organic acids, sugars, and a flavour formulation. The following compounds were added to the snack product at the indicated levels and the tasting results are reported: […]

Experiment [8] can be described thus: Tasting in Activa strawberry yoghurt. Conditions: 2 ppm, 13.5% sugar, 3.2% fat. The text has this:
Activa Strawberry Yoghurt
In a Full fat, Activa strawberry flavoured yoghurt containing 13.5% sugar, 3.2% fat C18:2-gaba and C18:0-leu at 2 ppm

The next experiment in a line: Tasting in soy milk. Conditions: 2 ppm, soy milk (1.8% fat), 5% sucrose, milk flavour 0.1%. The method, then:
In a soy milk (1.8% fat) sweetened with 5% sucrose by weight, flavoured with a proprietary milk flavour ata dosage of 0.1%, C18:2-gaba was added at 2 ppm
as §1

Experiment [9] in a line: Tasting in beef bouillon base. The conditions noted are these: 0.5 PPM in beef bouillon base 1.0% salt, 0.5% fat. The method, then:
as §2
Beef Bouillon base 1.0% salt, 0.5% fat

Experiment [10] in a line: Tasting in mango still beverage, 4% clear mango juice. Conditions: 1 ppm; 4% clear mango juice (30% reduced juice). The protocol: as §5, §6, §7
In a Mango flavoured still beverage, sweetened with 8% sucrose & containing 0.1% citric acid and 4% clear mango juice flavoured with Mango flavour @ 0.05%, C18:2-gaba and C18:2-Pro were added, as such (separate) and in combination.
Base is water, 8% sucrose, 0.1% citric acid, 4% clear mango juice (30% reduced juice), flavoured with Mango flavor, dosed at 0.05%

Experiment [11] is described as follows: Test in pineapple flavoured drink. Conditions: 1 ppm; water, 8% sugar, 0.1% citric acid, pineapple flavour 0.03%. The protocol:
as §3
Test in Pineapple Flavoured Drink:
Base is water, 8% sugar, 0.1% citric acid and proprietary pineapple flavour at 0.03%
as §4

Experimental findings from patent publication US11091429B2, “Organic compounds” (Givaudan SA, priority 2012, dated 2021) are described below.

“Also recorded” adds a separate entry of the source.

For `CCCCC/C=C\C/C=C\CCCCCCCC(=O)NCCCC(=O)O` [C18:2-gaba], the tasting result in experiment [1] (0.5 ppm, chocolate milk 1.8% fat) was “stronger cocoa note, more chocolate vs cocoa”; in experiment [1] (0.5 ppm, chocolate milk 3% fat), “very creamy, enhanced cocoa note”; in [1] (1 ppm, chocolate milk 1.8% fat), “very creamy, chocolate, long-lasting creamy and chocolate taste”; in experiment [1] (1 ppm, chocolate milk 3% fat) it was “very creamy, lasting, sweet, almost taste like chocolate ice cream”; in the experiment “Tasting of baked pizza”, “The crust was less dry, more succulent and the tomato was richer, sweeter and the total lingering aftertaste was very rich and pleasant”; in experiment [2], “fruity peach, long lasting, juicy and fatty skin like very authentic”. Besides, the tasting result in experiment [3] is “fatty, long lasting authentic vanilla, vanilla bean taste is enhanced”; in experiment [4], “fatty skin-like, very thick juicy, authentic mango, long lasting mango taste, rich”; in experiment [5], “very creamy and fresh strawberry; also recorded: creamy, fruity authentic strawberry, stronger strawberry, ripe, long lasting, juicy”; in [6] (1 ppm), “fatty skin-like, very juicy, authentic mango, much more mouthfeel, long lasting mango taste, mouthfeel is close to the full juice product”; in [6] (2 ppm), “fatty skin like, juicy, authentic”; in [7] (0.5 ppm on fried potato snack) it was “increased dairy, cheesy”. The tasting result was “Fatty full, cheesy, cheese crust, long lasting” in experiment [7] (1 ppm on fried potato snack); “very creamy, full and fresh strawberry” in experiment [8]; “clean, creamy, good masking of the soy bean taste, creamy and milky” in “Tasting in soy milk”; “Strong, Salty, Umami, mouthfeel” in experiment [9]; “fatty skin-like, very juicy, authentic mango, long lasting mango taste, more mouthfeel than the full juice product” in [10]; “very ripe, jammy, long lasting and sweet” in [11].
